Reference: article PMC7179653 (Antimicrobial Agents and Chemotherapy, 2020)

Assays:
[1] = SAD study: safety and tolerability (TEAEs); format: in vivo, human; settings: for TEAE: Abdominal pain / TEAE: Application site rash / TEAE: Chest discomfort / TEAE: Cough / TEAE: Fatigue / TEAE: Feeling hot / TEAE: Headache / TEAE: Nasal congestion / TEAE: Rhinitis / TEAE: Sinus tachycardia / ≥1 TEAE / ≥1 drug-related TEAE / ≥1 serious TEAE / ≥1 severe TEAE: n = 6
Procedure: The two studies were randomized, double-blind, placebo-controlled studies that enrolled participants into sequential treatment cohorts using a 3:1 active treatment-to-placebo randomization ratio.
A sentinel dosing strategy was employed in both studies. […] In all cohorts, escalation to the next dose occurred after a safety review of the previous cohort. In the MAD study, sentinel dosing was performed in part 3, wherein participants were evaluated for safety up to 24 h after administration of the first drug combination (or placebo) on day 3, prior to enrolling additional participants.
Safety assessments included monitoring of AEs, laboratory safety tests (hematology, serum chemistry, and urinalysis), 12-lead ECG (discrete recordings and 24-h Holter recording), and vital signs (blood pressure, pulse rate, and body temperature). In the SAD study, safety assessments were performed predose at screening, at day 1, postdose periodically on days 1, 2, and 7 (follow-up), and at early withdrawal, if relevant. Blood samples for pharmacokinetic profiling in the SAD study were collected on day 1 before the morning infusion and 0.5, 1, 1.5, 2, 3, 4, 6, 8, 12, and 24 h postinfusion start. In the MAD study, safety assessments were done predose at screening, at day 2, postdose periodically on days 1, 2, 4, 7, and 8, on days 13 to 15 (follow-up), and at early withdrawal, if relevant. In the MAD study, blood samples were collected on days 1 and 9 prior to the morning infusion and 0.5, 1, 1.5, 2, 3, 4, 6, 8, and 12 h (on day 9 only) postinfusion start. On all other days, a single predose sample was collected for pharmacokinetic evaluation prior to the morning infusion. Blood was collected into lithium-heparin tubes and stored at a nominal –80°C temperature until analysis.

[2] = Drug-drug interaction analysis nacubactam/meropenem (ANCOVA, geometric mean ratios); format: in vivo, human; settings: nacubactam 2,000 mg single dose, 90% CI
Procedure: All participants in the active group received a single 2,000-mg dose of both drugs on day 3 and q8h on days 4 to 8, with a final single dose of both drugs on the morning of day 9. A washout period of approximately 24 h between treatments was provided.

[3] = design: method as in unpublished data; settings: ref unpublished data; cited from earlier work

For `NCCONC(=O)[C@@H]1CC[C@@H]2CN1C(=O)N2OS(=O)(=O)O` [Nacubactam], the “TEAE: Abdominal pain” value ([1]; SAD, 50 mg) was 0 n/E, the “TEAE: Application site rash” value ([1]; SAD, 50 mg) was 0 n/E and the “TEAE: Chest discomfort” value ([1]; SAD, 50 mg) was 1/1. For the same compound, the “TEAE: Cough” value ([1]; SAD, 50 mg) was 0 n/E, the “TEAE: Fatigue” value ([1]; SAD, 50 mg) was 1/1 and the “TEAE: Feeling hot” value ([1]; SAD, 50 mg) was 0 n/E. The “TEAE: Headache” value ([1]; SAD, 50 mg) was 0 n/E, the “TEAE: Nasal congestion” value ([1]; SAD, 50 mg) was 1/1 and the “TEAE: Rhinitis” value ([1]; SAD, 50 mg) was 0 n/E. For the same compound, the “TEAE: Sinus tachycardia” value ([1]; SAD, 50 mg) was 0 n/E, the “≥1 TEAE” value ([1]; SAD, 50 mg) was 2/3 and the “≥1 drug-related TEAE” value ([1]; SAD, 50 mg) was 0 n/E. For the same compound, the “≥1 serious TEAE” value ([1]; SAD, 50 mg) was 0 n, the “≥1 severe TEAE” value ([1]; SAD, 50 mg) was 0 n and the “TEAE: Abdominal pain” value ([1]; SAD, 150 mg) was 0 n/E. The “TEAE: Application site rash” value ([1]; SAD, 150 mg) was 0 n/E, the “TEAE: Chest discomfort” value ([1]; SAD, 150 mg) was 0 n/E and the “TEAE: Cough” value ([1]; SAD, 150 mg) was 1/1. For the same compound, the “TEAE: Fatigue” value ([1]; SAD, 150 mg) was 0 n/E, the “TEAE: Feeling hot” value ([1]; SAD, 150 mg) was 1/1 and the “TEAE: Headache” value ([1]; SAD, 150 mg) was 0 n/E. The “TEAE: Nasal congestion” value ([1]; SAD, 150 mg) was 0 n/E, the “TEAE: Rhinitis” value ([1]; SAD, 150 mg) was 0 n/E and the “TEAE: Sinus tachycardia” value ([1]; SAD, 150 mg) was 1/1. For the same compound, the “≥1 TEAE” value ([1]; SAD, 150 mg) was 1/3, the “≥1 drug-related TEAE” value ([1]; SAD, 150 mg) was 0 n/E and the “≥1 serious TEAE” value ([1]; SAD, 150 mg) was 0 n. For the same compound, the “≥1 severe TEAE” value ([1]; SAD, 150 mg) was 0 n, the “TEAE: Abdominal pain” value ([1]; SAD, 500 mg) was 0 n/E and the “TEAE: Application site rash” value ([1]; SAD, 500 mg) was 0 n/E. For the same compound, the “TEAE: Chest discomfort” value ([1]; SAD, 500 mg) was 0 n/E, the “TEAE: Cough” value ([1]; SAD, 500 mg) was 0 n/E and the “TEAE: Fatigue” value ([1]; SAD, 500 mg) was 0 n/E. The “TEAE: Feeling hot” value ([1]; SAD, 500 mg) was 0 n/E, the “TEAE: Headache” value ([1]; SAD, 500 mg) was 1/1 and the “TEAE: Nasal congestion” value ([1]; SAD, 500 mg) was 0 n/E. For the same compound, the “TEAE: Rhinitis” value ([1]; SAD, 500 mg) was 1/1, the “TEAE: Sinus tachycardia” value ([1]; SAD, 500 mg) was 0 n/E and the “≥1 TEAE” value ([1]; SAD, 500 mg) was 2/2. The “≥1 drug-related TEAE” value ([1]; SAD, 500 mg) was 0 n/E, the “≥1 serious TEAE” value ([1]; SAD, 500 mg) was 0 n and the “≥1 severe TEAE” value ([1]; SAD, 500 mg) was 0 n. For the same compound, the “TEAE: Abdominal pain” value ([1]; SAD, 1,000 mg) was 1/1, the “TEAE: Application site rash” value ([1]; SAD, 1,000 mg) was 0 n/E and the “TEAE: Chest discomfort” value ([1]; SAD, 1,000 mg) was 0 n/E. The “TEAE: Cough” value ([1]; SAD, 1,000 mg) was 0 n/E, the “TEAE: Fatigue” value ([1]; SAD, 1,000 mg) was 1/1 and the “TEAE: Feeling hot” value ([1]; SAD, 1,000 mg) was 0 n/E. The “TEAE: Headache” value ([1]; SAD, 1,000 mg) was 0 n/E, the “TEAE: Nasal congestion” value ([1]; SAD, 1,000 mg) was 0 n/E and the “TEAE: Rhinitis” value ([1]; SAD, 1,000 mg) was 0 n/E. For the same compound, the “TEAE: Sinus tachycardia” value ([1]; SAD, 1,000 mg) was 0 n/E, the “≥1 TEAE” value ([1]; SAD, 1,000 mg) was 2/2 and the “≥1 drug-related TEAE” value ([1]; SAD, 1,000 mg) was 0 n/E. The “≥1 serious TEAE” value ([1]; SAD, 1,000 mg) was 0 n, the “≥1 severe TEAE” value ([1]; SAD, 1,000 mg) was 0 n and the “TEAE: Abdominal pain” value ([1]; SAD, 2,000 mg) was 0 n/E. The “TEAE: Application site rash” value ([1]; SAD, 2,000 mg) was 0 n/E, the “TEAE: Chest discomfort” value ([1]; SAD, 2,000 mg) was 0 n/E and the “TEAE: Cough” value ([1]; SAD, 2,000 mg) was 0 n/E. For the same compound, the “TEAE: Fatigue” value ([1]; SAD, 2,000 mg) was 0 n/E, the “TEAE: Feeling hot” value ([1]; SAD, 2,000 mg) was 0 n/E and the “TEAE: Headache” value ([1]; SAD, 2,000 mg) was 1/1. For the same compound, the “TEAE: Nasal congestion” value ([1]; SAD, 2,000 mg) was 0 n/E, the “TEAE: Rhinitis” value ([1]; SAD, 2,000 mg) was 0 n/E and the “TEAE: Sinus tachycardia” value ([1]; SAD, 2,000 mg) was 0 n/E. The “≥1 TEAE” value ([1]; SAD, 2,000 mg) was 1/1, the “≥1 drug-related TEAE” value ([1]; SAD, 2,000 mg) was 1/1 and the “≥1 serious TEAE” value ([1]; SAD, 2,000 mg) was 0 n. For the same compound, the “≥1 severe TEAE” value ([1]; SAD, 2,000 mg) was 0 n, the “total number of AEs” value ([1]; SAD, all nacubactam doses, 30 participants) was 11 and the “participants reporting one or more AEs” value ([1]; SAD, all nacubactam doses, eight of the 30 participants) was 26.7%. For the same compound, the “CLR GMR, monotherapy vs combination with meropenem” value ([2]; 0.85 to 1.07) was 0.95, the “Vss GMR, monotherapy vs combination with meropenem” value ([2]; 0.87 to 1.11) was 0.98 and the fraction unbound [3] was 0.98. The protein binding [3] was 2%.
